This note sets out measurements from DBAASP.

Converted amounts (≈) assume the structure as drawn.

Some test systems named below: Klebsiella aerogenes; Pseudomonas aeruginosa; Escherichia coli ML-35p; Enterobacter cloacae; Escherichia coli; Staphylococcus aureus.
What all share (assay): ≥ marks a high value that may be exact or a test limit, other limits are often not marked, values filed in µg/mL are converted to µM
Assay [1] concerns Pseudomonas aeruginosa ATCC 27853.
Assay [2] has as its system Staphylococcus aureus ATCC 25923.
Assay [3] deals with Pseudomonas aeruginosa PAO1.
Assay [4] deals with Escherichia coli ATCC 25922.
Assay [5] relates to Staphylococcus aureus CPCC 100520.
Assay [6] deals with Candida albicans CPCC 400416.
Assay [7] concerns Escherichia coli CPCC 100521.
In assay [8] the test system is Salmonella typhimurium CCARM 8003.
For assay [9], the system named is Salmonella typhimurium CCARM 8007.
In assay [10] the test system is Staphylococcus aureus CCARM 3108.
Assay [11] concerns Pseudomonas aeruginosa KCTC 1637.
Assay [12] deals with Pseudomonas aeruginosa CCARM 2095.
The subject of assay [13] is Staphylococcus aureus CCARM 3126.
In assay [14] the test system is Salmonella typhimurium KCTC 1926.
Assay [15] concerns Acinetobacter baumannii KCTC 2508.
The test system of assay [16] is Pseudomonas aeruginosa CCARM 2002.
The subject of assay [17] is Staphylococcus aureus CCARM 3089.
In assay [18] the test system is Bacillus subtilis KCTC 3028.
In assay [19] the test system is Staphylococcus aureus KCTC 1621.
The test system of assay [20] is Acinetobacter baumannii CCARM 12036.
Assay [21] relates to Acinetobacter baumannii CCARM 12035.
Assay [22] relates to Staphylococcus epidermidis KCTC 1917.
In assay [23] the test system is Escherichia coli CCARM 1229.
The test system of assay [24] is Escherichia coli CCARM 1238.
Assay [25] deals with Escherichia coli KCTC 1682.
Assay [26] deals with Staphylococcus aureus ATCC 33592.
In assay [27] the test system is Staphylococcus aureus NCTC 8530.

As a reminder, the MIC is the smallest concentration in the dilution series that meets the test's criterion for growth inhibition. Take `CC[C@H](C)[C@H](NC(=O)[C@@H](NC(=O)[C@H](CCCN=C(N)N)NC(=O)[C@@H]1CCCN1C(=O)[C@H](CCCCN)NC(=O)[C@H](CCCCN)NC(=O)[C@H](Cc1ccccc1)NC(=O)[C@H](Cc1ccccc1)NC(=O)[C@H](CCCCN)NC(=O)[C@H](CCCCN)NC(=O)[C@H](C)N)C(C)C)C(=O)NCC(=O)N[C@H](C(=O)N[C@@H](CO)C(=O)N[C@H](C(=O)N1CCC[C@H]1C(=O)N[C@@H](Cc1ccccc1)C(=O)O)[C@@H](C)CC)C(C)C` [AKKFFKKPRVIGVSIPF]: the minimum inhibitory concentration (MIC) in assay [1] came to 3.57 µM (≈ 7 µg/mL); against Klebsiella aerogenes, 13.8 µM (≈ 27 µg/mL); in the assay with Pseudomonas aeruginosa it was 6.62 µM (≈ 13 µg/mL); in assay [2] it was 21.4 µM (≈ 42 µg/mL); in [3] it was 6.62 µM (≈ 13 µg/mL); against Escherichia coli ML-35p it was 2.55 µM (≈ 5 µg/mL). For the same compound, the MIC with Enterobacter cloacae amounted to 10.7 µM (≈ 21 µg/mL); in assay [4] it was 1.53 µM (≈ 3 µg/mL); with Escherichia coli it was 2.04 µM (≈ 4 µg/mL); with Staphylococcus aureus, 5.1 µM (≈ 10 µg/mL).
Turning to `CC[C@H](C)[C@H](NC(=O)CN)C(=O)NCC(=O)NCC(=O)N[C@@H](C)C(=O)N[C@@H](CC(C)C)C(=O)N[C@@H](CC(C)C)C(=O)N[C@@H](CO)C(=O)N[C@@H](C)C(=O)NCC(=O)N[C@@H](CCCCN)C(=O)N[C@@H](CO)C(=O)N[C@@H](C)C(=O)N[C@@H](CC(C)C)C(=O)N[C@@H](CCCCN)C(=O)NCC(=O)N[C@@H](CC(C)C)C(=O)N[C@@H](C)C(=O)N[C@@H](CCCCN)C(=O)NCC(=O)N[C@@H](CC(C)C)C(=O)N[C@@H](C)C(=O)N[C@@H](CCC(=O)O)C(=O)N[C@@H](Cc1cnc[nH]1)C(=O)N[C@@H](Cc1ccccc1)C(=O)N[C@@H](C)C(=O)N[C@@H](CC(N)=O)C(N)=O` [GIGGALLSAGKSALKGLAKGLAEHFAN], the MIC in [5] stood at 6.3 µM (≈ 16.1 µg/mL); in assay [6], 12.5 µM (≈ 31.9 µg/mL); in assay [7], 6.3 µM (≈ 16.1 µg/mL).
Consider `CC[C@H](C)[C@H](NC(=O)[C@H](C)NC(=O)[C@H](CCCCN)NC(=O)[C@H](Cc1cnc[nH]1)NC(=O)[C@@H](NC(=O)[C@@H]1CCCN1C(=O)[C@H](CCC(N)=O)NC(=O)[C@H](Cc1ccccc1)NC(=O)[C@@H](NC(=O)[C@H](CCCCN)NC(=O)[C@H](CCCCN)NC(=O)[C@H](CC(C)C)NC(=O)[C@H](C)NC(=O)[C@H](CC(N)=O)NC(=O)[C@H](CC(C)C)NC(=O)CN)C(C)C)[C@@H](C)CC)C(=O)N[C@@H](CCCCN)C(=O)N[C@@H](CCCCN)C(=O)N[C@H](C(=O)N[C@@H](CC(N)=O)C(=O)N[C@@H](CC(N)=O)C(=O)N[C@@H](Cc1cnc[nH]1)C(=O)N[C@H](C(=O)N[C@@H](CCC(N)=O)C(=O)O)C(C)C)[C@@H](C)CC` [GLNALKKVFQPIHKAIKKINNHVQ], for which the minimal inhibitory concentration (MIC) was 16 µM (≈ 43.8 µg/mL) in assay [8]; 16 µM (≈ 43.8 µg/mL) in assay [9]; at least 32 µM in [10]; 8 µM (≈ 21.9 µg/mL) in assay [11]; 16 µM (≈ 43.8 µg/mL) in assay [12]; at least 64 µM in assay [13]. The MIC is 8 µM (≈ 21.9 µg/mL) in [14]; 8 µM (≈ 21.9 µg/mL) in assay [15]; 16 µM (≈ 43.8 µg/mL) in [16]; at least 32 µM in assay [17]; at least 32 µM in assay [18]; at least 32 µM in assay [19]. Further, the MIC in assay [20] was 8 µM (≈ 21.9 µg/mL); in [21], 16 µM (≈ 43.8 µg/mL); in assay [22], at least 64 µM; in [23] it was 8 µM (≈ 21.9 µg/mL); in assay [24], 8 µM (≈ 21.9 µg/mL); in assay [25] it was 4 µM (≈ 11 µg/mL).
For the compound `CC[C@H](C)[C@H](NC(=O)[C@H](CCCCN)NC(=O)[C@H](CCCN=C(N)N)NC(=O)[C@@H](N)CCCCN)C(=O)N[C@@H](Cc1ccccc1)C(=O)N[C@@H](CC(C)C)C(=O)N[C@@H](CCCN=C(N)N)C(=O)N[C@H](C(=O)N[C@@H](CCCCN)C(=O)N[C@H](C(=O)N[C@@H](CC(C)C)C(=O)N[C@H](C(=O)O)C(C)C)[C@@H](C)CC)[C@@H](C)O` [KRKIFLRTKILV], the minimum inhibitory concentration (MIC) in [26] and in assay [27] was 3 µM (≈ 4.54 µg/mL) in each case.
